Experimental findings from patent US9382213B2, “Heterocyclic and cyclic analogs of propargyl-linked inhibitors of dihydrofolate reductase” (PROMILIAD BIOPHARMA INC., priority 2014, dated 2016) are described below.

Data set [1] has as its target T1, hDHFR (Homo sapiens, UniProt P00374).
T1 sequence (P00374 1-187): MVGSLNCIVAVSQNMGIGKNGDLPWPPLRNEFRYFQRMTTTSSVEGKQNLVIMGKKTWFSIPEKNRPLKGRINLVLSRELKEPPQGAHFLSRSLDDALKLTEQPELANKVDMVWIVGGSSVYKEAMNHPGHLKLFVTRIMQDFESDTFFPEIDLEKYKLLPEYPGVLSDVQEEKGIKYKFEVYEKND
The data set can be described thus: DHFR enzyme inhibition (NADPH consumption at 340 nm), human DHFR. The class given is biochemical. The protocol: (§1) Enzyme inhibition was determined by monitoring the consumption of NADPH at 340 nm for one minute. Reactions were performed with 20 mM TES pH 7.0, 50 mM KCl, 10 mM 2-mercaptoethanol, 0.5 mM EDTA and 1 mg/mL bovine serum albumin. Saturating concentrations of cofactor (100 μM NADPH) and substrate (100 μM dihydrofolate) were used with a limiting concentration of enzyme. All assays were conducted in triplicate at 25° C.

Data set [2] addresses T2, CaDHFR (Candida albicans, UniProt P22906).
T2 construct: made in house
T2 sequence (P22906 1-192): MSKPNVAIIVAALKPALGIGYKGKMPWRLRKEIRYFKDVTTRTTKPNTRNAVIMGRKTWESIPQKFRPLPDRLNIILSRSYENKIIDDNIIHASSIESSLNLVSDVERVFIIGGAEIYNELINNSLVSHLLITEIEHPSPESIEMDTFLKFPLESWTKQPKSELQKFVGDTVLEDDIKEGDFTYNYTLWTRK
The data set can be described thus: DHFR enzyme inhibition (NADPH consumption at 340 nm), C. albicans DHFR. The class given is biochemical. Here is the method: (§2) Med. Chem., 17:4866-4872 (2009)). Crystallization of the protein with ligand also followed previously described procedures (Paulsen et al 2011). Data were collected at Brookhaven National Laboratory, beamline X4A (CaDHFR) or X4C (CgDHFR). Molecular replacement was used to determine all three structures. Initial phase information was obtained using Phaser; electron density and model building used Coot. Refinement was carried out with Refmac 5 as part of the CCP4 package. Procheck was used to assess model quality.
as §1

For data set [3], the system named is Human MCF-10. The data set can be described thus: Mammalian cell cytotoxicity. It counts as cell-based.
Data set [4] has as its system C. glabrata (strain NCCLS84). In words: Antifungal activity (MIC), XTT cell viability. The class given is cell-based, Candida glabrata. To be noted: strain NCCLS84, GSB media. The protocol: (§3) Stock cultures of C. albicans (strain SC5314) or C. glabrata (strain NCCLS84), thawed from storage in 50% glycerol at −80° C., were streaked on YM agar plates and grown at 37° C. for 48 hours. Isolated colonies from the plate were suspended in 100 mL of glucose-salt-biotin (GSB) media containing ammonia chloride (2 g), potassium phosphate (0.35 g), magnesium sulfate (0.24 g), sodium citrate (0.3 g), piperazine-N,N′-bis[2-ethanesulfonic acid] (3.4 g), biotin (40 mg) and glucose (20 g) in 1 L of water at a final pH of 7.1. […] An aliquot was removed from the shake flask culture, diluted to between 1×10^5 and 1×10^6 cells/mL in GSB media, and added to 96 well test plates (100 μL per well) containing test compounds dispensed in DMSO (1 μL). Amphotericin B and itraconazole were used as controls. C. albicans cell viability was determined by the addition of Alamar Blue (10 μL) to each well after a 24 hour incubation period. […] The XTT Cell Proliferation kit (ATCC) was used as an alternative. Tetrazolium dye, XTT, along with an electron activating reagent (50 μL) was added to 96 well plates and incubated for 24 hours at 37° C. Cell viability is indicated by a color change from a dark orange to a bright orange color that can be detected at […].

The subject of data set [5] is C. albicans (strain SC5314). In words: Antifungal activity (MIC), Alamar Blue cell viability. It counts as cell-based, Candida albicans. Particulars: strain SC5314, GSB media, Alamar Blue after 24 hour incubation; for MIC: Candida albicans, SC5314, 24 h. The protocol: as §3
Data set [6] concerns the target T3, CgDHFR (Candida glabrata, UniProt Q6FPH0).
T3 construct: made in house
The data set can be described thus: DHFR enzyme inhibition (NADPH consumption at 340 nm), C. glabrata DHFR. It counts as biochemical. Particulars: 100 μM NADPH, 100 μM dihydrofolate, pH 7.0, 25° C., triplicate. The protocol: as §2, §1

Data set [7] is described as follows: Kinetic solubility. To be noted: water, 0.2% DMSO, room temperature 30 min, HPLC. The class given is physicochemical. Here is the method:
Compounds were initially dissolved as […] dimethyl sulfoxide (DMSO) solutions and diluted in filtered water in the presence or absence of 200 μg/ml methylcellulose (METHOCEL A4M; Dow Corning, Midland, Mich.). Final concentration of DMSO of all samples is 0.2%. All samples were incubated at room temperature for 30 min and centrifuged for 10 min at 15,000 rpm. Supernatant of the samples were analyzed by reversed phase HPLC. The mobile phase consisted of 50% acetonitrile (ACN) and 50% potassium phosphate buffer (50 mM, pH 7.0), using an isocratic flow rate of 1.5 ml/min. Solubility was determined as the maximal concentration for which absorption is linearly related to the log of the concentration.

[8] abbreviates: 100 μM NADPH, 100 μM dihydrofolate, pH 7.0, 25° C., triplicate.
Where [9] appears, read: MCF10, Human MCF-10 cells, read-out: IC50 Human MCF-10.

Values after ≈ are worked out from the molar mass of the structure shown. Like-named read-outs stand apart in the source and are kept apart here.

T3 sequence (Q6FPH0 entry or part of it): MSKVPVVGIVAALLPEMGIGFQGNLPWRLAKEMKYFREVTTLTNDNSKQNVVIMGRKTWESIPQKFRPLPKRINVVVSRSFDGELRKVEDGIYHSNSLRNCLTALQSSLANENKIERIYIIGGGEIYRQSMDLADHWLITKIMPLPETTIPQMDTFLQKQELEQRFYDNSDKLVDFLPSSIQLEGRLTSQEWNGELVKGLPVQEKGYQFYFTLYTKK

`CCc1nc(N)nc(N)c1C#CC(C)c1ccc(-c2ccc(C(=O)OC)cc2)cc1OC` (centres unmarked) [Compound 34, 4′-[3-(2,4-Diamino-6-ethyl-pyrimidin-5-yl)-1-methyl-prop-2-ynyl]-3′-methoxy-biphenyl-4-carboxylic acid methyl ester] had a melting point of 168.2 to 170.8 °C. The molecule further came in with an IC50 in data set [1] (setting [8]) of 49 nM. Also, in data set [2] (setting [8]), 46 nM corresponded to half-maximal inhibition (IC50). Moreover, the IC50 in data set [3] (setting [9]) amounted to 96 µM.

For `CCc1nc(N)nc(N)c1C#CC(C)c1ccc(-c2ccc(N(C)C)cc2)cc1OC` (centres unmarked) [Compound 35, 5-[3-(4′-Dimethylamino-3-methoxy-biphenyl-4-yl)-but-1-ynyl]-6-ethyl-pyrimidine-2,4-diamine], the melting point lay within 135.2 to 136.1 °C. In data set [1] (pH 7), this molecule came in with an IC50 of 147 nM. The same molecule returned an IC50 in data set [2] (pH 7) of 64 nM.

Turning to `CCc1nc(N)nc(N)c1C#CC(C)c1ccc(-c2ccc(C#N)cc2)cc1OC` (centres unmarked) [Compound 32, 4′-[3-(2,4-Diamino-6-ethyl-pyrimidin-5-yl)-1-methyl-prop-2-ynyl]-3′-methoxy-biphenyl-4-carbonitrile], the melting point fell in the range of 130.9 to 133.1 °C. Besides, it took 477 nM to reach half-maximal inhibition in data set [1] (setting [8]) (IC50). In data set [2] (setting [8]), this molecule displayed an IC50 of 50 nM. Moreover, the IC50 in data set [3] (setting [9]) came out at 50 µM.

With `CCc1nc(N)nc(N)c1C#CC(C)c1ccc(-c2ccc(C)cc2)nc1` (centres unmarked) [Compound 47, 6-Ethyl-5-[3-(6-p-tolyl-pyridin-3-yl)-but-1-ynyl]-pyrimidine-2,4-diamine], the melting point fell in the range of 144 to 146.1 °C. For the same molecule, the IC50 in data set [1] (setting [8]) turned out to be 625 nM. In data set [4] (Nakaseomyces glabratus), this molecule had a minimal inhibitory concentration (MIC) of 0.2 to 0.78 µg/mL (≈ 0.56 to 2.18 µM). Also, the “MIC C. glabrata” value in data set [4] came out at 0.2 µg/mL (≈ 0.56 µM). The molecule further yielded an IC50 in data set [2] (pH 7) of 49 nM. In data set [5], the MIC is 0.2 to 0.78 µg/mL (≈ 0.56 to 2.18 µM) and the “MIC C. albicans” value is 0.39 µg/mL (≈ 1.09 µM). Also, it took 27 nM to reach half-maximal inhibition in data set [6] (IC50). In addition, the solubility in data set [7] was 15 µg/mL (≈ 42 µM).

The molecule `CCc1nc(N)nc(N)c1C#CC(C)c1ccc(-c2ccc(O)cc2)cc1OC` (centres unmarked) [Compound 30, 4′-[3-(2,4-Diamino-6-ethyl-pyrimidin-5-yl)-1-methyl-prop-2-ynyl]-3′-methoxy-biphenyl-4-ol] showed a melting point of 188.1 to 189.3 °C. Moreover, the IC50 in data set [1] (setting [8]) worked out at 136 nM. This molecule registered an IC50 in data set [2] (setting [8]) of 39 nM. Besides, the IC50 in data set [3] (Homo sapiens, MCF10, read-out: IC50 Human MCF-10) amounted to 148 µM.

Take `CCc1nc(N)nc(N)c1C#CC(C)c1ccc(-c2ccccc2)nc1` (centres unmarked) [Compound 46, 6-Ethyl-5-[3-(6-phenyl-pyridin-3-yl)-but-1-ynyl]-pyrimidine-2,4-diamine]: in data set [1] (setting [8]), the concentration for half-maximal inhibition (IC50) came to 688 nM. In data set [4], the “MIC C. glabrata” value amounted to 0.78 µg/mL (≈ 2.27 µM). In data set [5], the MIC lay within 0.2 to 0.78 µg/mL (≈ 0.582 to 2.27 µM) and the “MIC C. albicans” value turned out to be 0.39 µg/mL (≈ 1.14 µM). The molecule also returned an IC50 in data set [6] of 23 nM. In data set [7], the solubility came out at 20 µg/mL (≈ 58.2 µM).

For `CCc1nc(N)nc(N)c1C#CC(C)c1ccc(-c2ccc(OC(N)=O)cc2)cc1OC` (centres unmarked) [Compound 33, Carbamic acid 4′-[3-(2,4-diamino-6-ethyl-pyrimidin-5-yl)-1-methyl-prop-2-ynyl]-3′-methoxy-biphenyl-4-yl ester], the IC50 stood at 170 nM in data set [1] (setting [8]) and 18 nM in data set [2] (setting [8]).

Molecule `CCc1nc(N)nc(N)c1C#CC(C)c1cnc(-c2ccccc2)nc1` (centres unmarked) [Compound 48, 6-Ethyl-5-[3-(2-phenyl-pyrimidin-5-yl)-but-1-ynyl]-pyrimidine-2,4-diamine] registered a melting point of 161.3 to 162.8 °C. In addition, in data set [1] (setting [8]), the IC50 was 180 nM. Further, the “MIC C. glabrata” value in data set [4] was 0.78 µg/mL (≈ 2.26 µM). Moreover, in data set [2] (setting [8]), the IC50 turned out to be 37 nM. For the same molecule, in data set [5], the MIC was in the range of 0.2 to 0.78 µg/mL (≈ 0.581 to 2.26 µM) and the “MIC C. albicans” value was 0.19 µg/mL (≈ 0.552 µM). This molecule yielded an IC50 in data set [6] of 22 nM. The IC50 in data set [3] (setting [9]) amounted to 216 µM. In addition, the solubility in data set [7] was found to be 60 µg/mL (≈ 174 µM).
